# Test results: ChEMBL document CHEMBL1154495, “1,5-Benzothiazepine, a versatile pharmacophore: a review” (Eur J Med Chem, 2008)
# Tested on: Human immunodeficiency virus 1
# Test: Antiviral activity against HIV1 infected in human MT4 cells assessed as inhibition of virus-induced cytopathicity
# Format: functional, organism-based
# Conditions: Human immunodeficiency virus 1, MT4
structure (smiles),measurement,value
CC(C)=CCn1cc2c(c1)S(=O)(=O)c1cc(Cl)ccc1NC2=O,EC50,0.3 µM
